Laboratory results as given in patent US20230416329A1, “A PEPTIDE WITH DISULFIDE BONDS AND INHIBITORY ACTIVITY AGAINST SERINE PROTEASES, DERIVED HYBRID PEPTIDES THEREOF, AND USES THEREOF” (INSTITUTE OF MATERIA MEDICA , CHINESE ACADEMY OF MEDICAL …, priority 2020, published 2023).
“And” between values parts separate entries of the source, which are not always exact repeats. Equal entries are not always repeated.

System: mouse ear swelling
Experiment: Croton oil mouse ear swelling, IL-17A inhibitory peptide administered via duodenum
Type: in vivo
Details: peptides 300 mg/kg, dexamethasone 1 mg/mL, 10 mL/kg
Experimental: Enteric coating technology can be used to achieve oral administration of targeted small intestine drugs. Considering factors such as gastric emptying and physical barriers in the stomach, in order to accurately detect the feasibility of direct intestinal administration of targeted IL-17A inhibitory peptide, duodenal administration is designed. Eight mice in each group are subjected to surgical exposure of the duodenum under ether anesthesia, and the drug is injected according to different grouping schemes.
The model control group (Con) is given PEG400 (50%, w/v)/physiological saline. The administration group was given different polypeptide samples (300 mg/kg), while the positive control group was given dexamethasone (1 mg/mL, 10 mL/kg), and then the muscular layer and cortex were sutured. Ear swelling model was established 6 minutes after suture. All mice in each group were coated with 10 μL croton oil on both sides of the right ear. After 4 hours of inflammation, the mice in each group were killed for cervical dislocation. After that, ear pieces were punched in the symmetrical parts of the left and right ears with a hole punch and weighed. Their mass was recorded. The swelling degree and swelling rate were calculated:
Swelling rate=((right ear mass−left ear mass)/left ear mass)*100%

With `C[C@@H]1C[C@H]2[C@@H]3CCC4=CC(=O)C=C[C@]4(C)[C@@]3(F)[C@@H](O)C[C@]2(C)[C@@]1(O)C(=O)CO` [dexamethasone] the “Swelling (%)” value (4 hours after croton oil) was 58.11 ± 18.81 % and 65.67 ± 15.52 % and the “Swelling inhibitory (%)” value (vs model control) was 39.57% and 28.84%.
